In patent US20150005281A1, “PYRIMIDINE-2,4-DIAMINE DERIVATIVES AS KINASE INHIBITORS” (Cellzome Limited, priority 2011, published 2015):
Where a name gives a salt, the structure may show the parent alone.

Columns and labels:
Format in all cases: binding
[1] = target: T1, JAK1 (Homo sapiens, UniProt P23458); test: Kinobeads assay with immunodetection, JAK1; details: for IC50: Kinobeads assay, mixed Molt4/Ramos lysate, read-out: Inhibition values (IC50) JAK1
T1 construct: endogenous in cells; host or cells: Molt4 (ATCC CRL-1582) and Ramos (ATCC CRL-1596) cells; mixed lysate 1:2
Protocol: (§1) Determination of the Effect of the Compounds According to the Invention on Janus Kinases (JAK Family) in Kinobeads™ Assays with Immunodetection of Kinases
(§2) The compounds of the present invention as described in the previous examples were tested in a Kinobeads™ assay as described for ZAP-70 (WO-A 2007/137867). Briefly, test compounds (at various concentrations) and the affinity matrix with the immobilized aminopyrido-pyrimidine ligand 24 were added to cell lysate aliquots and allowed to bind to the proteins in the lysate sample. After the incubation time the beads with captured proteins were separated from the lysate. Bound proteins were then eluted and the presence of JAK1, JAK2, JAK3 and TYK2 was detected and quantified using specific antibodies in a dot blot procedure and the Odyssey infrared detection system. Dose response curves for individual kinases were generated and IC50 values calculated. Kinobeads™ assays for ZAP-70 (WO-A 2007/137867) and for kinase selectivity profiling (WO-A 2006/134056) have been previously described.
(§3) The affinity matrix was washed two times with 15 mL of 1×DP buffer containing 0.2% NP40 (IGEPAL® CA-630, Sigma, #13021) and then resuspended in 1×DP buffer containing 0.2% NP40 (3% beads slurry).
(§4) 5×DP buffer: 250 mM Tris-HCl pH 7.4, 25% Glycerol, 7.5 mM MgCl2, 750 mM NaCl, 5 mM Na3VO4; filter the 5×DP buffer through a 0.22 μm filter and store in aliquots at −80° C. The 5×DP buffer is diluted with H2O to 1×DP buffer containing 1 mM DTT and 25 mM NaF.
(§5) Stock solutions of test compounds were prepared in DMSO. In a 96 well plate 30 μL solution of diluted test compounds at 5 mM in DMSO were prepared. Starting with this solution a 1:3 dilution series (9 steps) was prepared. For control experiments (no test compound) a buffer containing 2% DMSO was used.
(§6) Molt4 cells (ATCC catalogue number CRL-1582) and Ramos cells (ATCC catalogue number CRL-1596) were grown in 1 L Spinner flasks (Integra Biosciences, #182101) in suspension in RPMI 1640 medium (Invitrogen, #21875-034) supplemented with 10% Fetal Bovine Serum (Invitrogen) at a density between 0.15×10^6 and 1.2×10^6 cells/mL. Cells were harvested by centrifugation, washed once with 1×PBS buffer (Invitrogen, #14190-094) and cell pellets were frozen in liquid nitrogen and subsequently stored at −80° C. Cells were homogenized in a Potter S homogenizer in lysis buffer: 50 mM Tris-HCl, 0.8% NP40, 5% glycerol, 150 mM NaCl, 1.5 mM MgCl2, 25 mM NaF, 1 mM sodium vanadate, 1 mM DTT, pH 7.5. One complete EDTA-free tablet (protease inhibitor cocktail, Roche Diagnostics, 1873580) per 25 ml, buffer was added. The material was dounced 10 times using a mechanized POTTER S, transferred to 50 mL falcon tubes, incubated for 30 minutes on ice and spun down for 10 minutes at 20,000 g at 4° C. (10,000 rpm in Sorvall SLA600, precooled). The supernatant was transferred to an ultracentrifuge (UZ)-polycarbonate tube (Beckmann, 355654) and spun for 1 hour at 100.000 g at 4° C. (33.500 rpm in Ti50.2, precooled). The supernatant was transferred again to a fresh 50 mL falcon tube, the protein concentration was determined by a Bradford assay (BioRad) and samples containing 50 mg of protein per aliquot were prepared. The samples were immediately used for experiments or frozen in liquid nitrogen and stored frozen at −80° C.
(§7) Cell lysate (approximately 50 mg protein per plate) was thawed in a water bath at room temperature and then stored on ice. To the thawed cell lysate 1×DP 0.8% NP40 buffer containing protease inhibitors (1 tablet for 25 mL buffer; EDTA-free protease inhibitor cocktail; Roche Diagnostics 1873580) was added in order to reach a final protein concentration of 10 mg/mL total protein. The diluted cell lysate was stored on ice. Mixed Molt4/Ramos lysate was prepared by combining one volume of Molt4 lysate and two volumes of Ramos lysate (ratio 1:2). […]

[2] = target: T2, JAK2 (Homo sapiens, UniProt O60674); test: Kinobeads assay with immunodetection, JAK2; details: mixed Molt4/Ramos lysate, read-out: Inhibition values (IC50) JAK2
T2 construct: endogenous in cells; host or cells: Molt4 (ATCC CRL-1582) and Ramos (ATCC CRL-1596) cells; mixed lysate 1:2
Protocol: as §1, §2, §3, §4, §5, §6, §7

[3] = target: T3, JAK3 (Homo sapiens, UniProt P52333); test: Kinobeads assay with immunodetection, JAK3; details: for IC50: Kinobeads assay, mixed Molt4/Ramos lysate, read-out: Inhibition values (IC50) JAK3
T3 construct: endogenous in cells; host or cells: Molt4 (ATCC CRL-1582) and Ramos (ATCC CRL-1596) cells; mixed lysate 1:2
T3 sequence (P52333 1-1124): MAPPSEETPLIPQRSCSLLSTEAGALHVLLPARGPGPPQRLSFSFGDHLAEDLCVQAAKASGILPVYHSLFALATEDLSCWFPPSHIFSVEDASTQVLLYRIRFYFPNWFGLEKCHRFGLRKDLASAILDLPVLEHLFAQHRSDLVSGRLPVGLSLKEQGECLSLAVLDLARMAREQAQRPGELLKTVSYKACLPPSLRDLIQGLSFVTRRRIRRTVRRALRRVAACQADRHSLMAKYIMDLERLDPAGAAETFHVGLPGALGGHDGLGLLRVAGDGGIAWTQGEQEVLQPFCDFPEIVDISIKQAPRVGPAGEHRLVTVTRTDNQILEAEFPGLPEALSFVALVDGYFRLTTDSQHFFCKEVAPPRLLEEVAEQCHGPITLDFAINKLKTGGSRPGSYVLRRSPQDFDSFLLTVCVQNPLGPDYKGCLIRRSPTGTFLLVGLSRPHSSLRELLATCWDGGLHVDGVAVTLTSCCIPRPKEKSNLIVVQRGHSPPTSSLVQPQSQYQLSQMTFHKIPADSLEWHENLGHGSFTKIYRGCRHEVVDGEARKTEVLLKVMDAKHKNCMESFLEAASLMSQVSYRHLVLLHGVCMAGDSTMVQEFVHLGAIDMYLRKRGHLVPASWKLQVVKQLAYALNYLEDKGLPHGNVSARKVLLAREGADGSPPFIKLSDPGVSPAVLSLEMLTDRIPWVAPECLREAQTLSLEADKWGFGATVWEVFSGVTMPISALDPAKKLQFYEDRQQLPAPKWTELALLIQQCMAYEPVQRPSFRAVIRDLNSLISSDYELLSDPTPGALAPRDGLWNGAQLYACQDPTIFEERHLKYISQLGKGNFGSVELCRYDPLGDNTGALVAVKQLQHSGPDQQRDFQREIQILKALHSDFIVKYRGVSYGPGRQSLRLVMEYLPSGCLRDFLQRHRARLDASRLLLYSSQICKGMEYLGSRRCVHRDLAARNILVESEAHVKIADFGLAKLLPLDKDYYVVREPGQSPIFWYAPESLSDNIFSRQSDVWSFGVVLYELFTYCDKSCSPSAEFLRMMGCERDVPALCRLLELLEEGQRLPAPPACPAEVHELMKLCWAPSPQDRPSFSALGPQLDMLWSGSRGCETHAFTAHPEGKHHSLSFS
Protocol: as §1, §2, §3, §4, §5, §6, §7

[4] = target: T4, TYK2 (Homo sapiens, UniProt P29597); test: Kinobeads assay with immunodetection, TYK2; details: for IC50: Kinobeads assay, mixed Molt4/Ramos lysate, read-out: Inhibition values (IC50) Tyk2
T4 construct: endogenous in cells; host or cells: Molt4 (ATCC CRL-1582) and Ramos (ATCC CRL-1596) cells; mixed lysate 1:2
Protocol: as §1, §2, §3, §4, §5, §6, §7

T2 sequence (O60674 whole entry): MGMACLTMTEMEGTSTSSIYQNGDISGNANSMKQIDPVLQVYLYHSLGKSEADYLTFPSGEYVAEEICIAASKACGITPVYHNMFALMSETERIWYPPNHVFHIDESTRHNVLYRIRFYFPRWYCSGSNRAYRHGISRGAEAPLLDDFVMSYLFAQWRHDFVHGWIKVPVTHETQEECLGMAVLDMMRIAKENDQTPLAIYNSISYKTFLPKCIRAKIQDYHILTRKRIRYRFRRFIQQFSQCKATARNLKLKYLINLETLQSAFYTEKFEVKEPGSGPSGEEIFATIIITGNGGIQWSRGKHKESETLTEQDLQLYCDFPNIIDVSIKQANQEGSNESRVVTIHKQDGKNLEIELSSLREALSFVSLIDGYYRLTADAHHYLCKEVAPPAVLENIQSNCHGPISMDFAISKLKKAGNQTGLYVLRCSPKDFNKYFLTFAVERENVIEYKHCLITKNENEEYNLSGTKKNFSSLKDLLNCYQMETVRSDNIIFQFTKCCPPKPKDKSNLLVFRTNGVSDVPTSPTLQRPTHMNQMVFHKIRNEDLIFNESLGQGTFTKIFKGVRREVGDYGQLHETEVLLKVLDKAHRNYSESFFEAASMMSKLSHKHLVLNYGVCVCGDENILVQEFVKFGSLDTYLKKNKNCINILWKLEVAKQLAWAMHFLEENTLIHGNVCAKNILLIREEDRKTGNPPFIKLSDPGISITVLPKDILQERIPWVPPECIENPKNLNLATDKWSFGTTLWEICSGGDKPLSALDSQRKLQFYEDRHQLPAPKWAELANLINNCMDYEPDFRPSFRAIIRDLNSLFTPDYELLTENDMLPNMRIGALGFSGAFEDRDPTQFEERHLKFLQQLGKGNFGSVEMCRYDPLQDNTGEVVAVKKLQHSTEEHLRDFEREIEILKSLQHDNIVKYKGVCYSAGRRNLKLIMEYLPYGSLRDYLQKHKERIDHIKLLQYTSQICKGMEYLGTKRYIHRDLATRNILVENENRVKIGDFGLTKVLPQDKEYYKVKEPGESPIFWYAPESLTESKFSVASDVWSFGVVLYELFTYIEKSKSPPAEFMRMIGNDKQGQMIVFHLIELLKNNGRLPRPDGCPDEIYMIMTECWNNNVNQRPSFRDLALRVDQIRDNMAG
T1 sequence (P23458 whole entry): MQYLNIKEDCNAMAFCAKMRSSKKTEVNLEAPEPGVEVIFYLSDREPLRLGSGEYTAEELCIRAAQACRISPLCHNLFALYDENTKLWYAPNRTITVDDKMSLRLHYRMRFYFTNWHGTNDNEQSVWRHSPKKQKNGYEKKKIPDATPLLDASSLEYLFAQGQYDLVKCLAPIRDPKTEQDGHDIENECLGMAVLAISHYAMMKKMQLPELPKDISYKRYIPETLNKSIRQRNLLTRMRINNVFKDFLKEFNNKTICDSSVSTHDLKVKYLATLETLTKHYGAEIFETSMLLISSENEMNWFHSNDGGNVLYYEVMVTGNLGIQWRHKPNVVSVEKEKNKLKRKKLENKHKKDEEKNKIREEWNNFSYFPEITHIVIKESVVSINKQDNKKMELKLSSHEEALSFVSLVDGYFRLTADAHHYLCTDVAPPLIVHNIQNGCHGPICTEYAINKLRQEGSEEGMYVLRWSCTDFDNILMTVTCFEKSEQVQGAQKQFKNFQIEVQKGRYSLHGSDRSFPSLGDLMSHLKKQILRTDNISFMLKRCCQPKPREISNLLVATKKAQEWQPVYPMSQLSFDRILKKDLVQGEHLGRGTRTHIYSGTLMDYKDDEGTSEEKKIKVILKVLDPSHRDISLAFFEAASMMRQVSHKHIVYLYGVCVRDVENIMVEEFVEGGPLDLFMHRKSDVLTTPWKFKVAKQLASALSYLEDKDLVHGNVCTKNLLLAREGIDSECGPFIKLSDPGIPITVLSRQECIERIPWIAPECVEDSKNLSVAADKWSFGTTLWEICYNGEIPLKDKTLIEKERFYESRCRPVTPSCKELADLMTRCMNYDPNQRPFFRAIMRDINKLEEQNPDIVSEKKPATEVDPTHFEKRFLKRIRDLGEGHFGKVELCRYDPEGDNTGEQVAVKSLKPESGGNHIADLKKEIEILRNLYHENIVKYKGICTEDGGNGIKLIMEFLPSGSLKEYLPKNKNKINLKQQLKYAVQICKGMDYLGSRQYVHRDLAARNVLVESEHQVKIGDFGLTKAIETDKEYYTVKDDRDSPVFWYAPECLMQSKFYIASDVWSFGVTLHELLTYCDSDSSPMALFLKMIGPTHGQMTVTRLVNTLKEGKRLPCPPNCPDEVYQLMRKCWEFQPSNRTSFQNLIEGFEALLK
T4 sequence (P29597 whole entry): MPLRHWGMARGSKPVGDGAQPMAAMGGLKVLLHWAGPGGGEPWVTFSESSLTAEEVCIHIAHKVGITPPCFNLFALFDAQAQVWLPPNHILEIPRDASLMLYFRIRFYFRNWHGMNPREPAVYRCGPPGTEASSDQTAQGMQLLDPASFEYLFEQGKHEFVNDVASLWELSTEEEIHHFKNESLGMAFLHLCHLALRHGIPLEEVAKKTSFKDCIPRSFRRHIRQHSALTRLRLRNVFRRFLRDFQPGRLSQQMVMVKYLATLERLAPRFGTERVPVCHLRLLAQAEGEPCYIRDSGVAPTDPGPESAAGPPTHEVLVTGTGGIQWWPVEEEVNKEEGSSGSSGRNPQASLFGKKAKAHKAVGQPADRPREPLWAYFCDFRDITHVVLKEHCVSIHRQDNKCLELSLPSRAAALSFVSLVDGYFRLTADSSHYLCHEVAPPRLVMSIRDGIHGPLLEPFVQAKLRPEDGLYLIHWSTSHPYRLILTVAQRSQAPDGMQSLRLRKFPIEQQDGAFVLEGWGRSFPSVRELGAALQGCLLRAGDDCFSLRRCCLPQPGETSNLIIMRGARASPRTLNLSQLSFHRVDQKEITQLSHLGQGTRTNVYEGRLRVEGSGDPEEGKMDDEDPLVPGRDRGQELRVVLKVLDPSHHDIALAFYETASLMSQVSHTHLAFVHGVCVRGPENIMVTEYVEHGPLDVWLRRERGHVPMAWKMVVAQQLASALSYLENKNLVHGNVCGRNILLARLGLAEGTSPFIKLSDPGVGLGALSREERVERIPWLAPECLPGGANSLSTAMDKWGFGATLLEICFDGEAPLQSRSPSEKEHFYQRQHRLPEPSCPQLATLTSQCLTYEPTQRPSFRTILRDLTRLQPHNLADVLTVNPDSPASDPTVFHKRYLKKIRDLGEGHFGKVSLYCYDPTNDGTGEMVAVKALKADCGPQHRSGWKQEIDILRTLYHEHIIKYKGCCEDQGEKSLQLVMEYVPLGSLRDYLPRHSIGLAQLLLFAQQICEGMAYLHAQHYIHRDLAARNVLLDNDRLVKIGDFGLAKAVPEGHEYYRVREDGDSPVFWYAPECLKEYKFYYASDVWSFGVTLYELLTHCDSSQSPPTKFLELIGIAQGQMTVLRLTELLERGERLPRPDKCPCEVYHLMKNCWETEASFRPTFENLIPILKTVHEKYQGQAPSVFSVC

IC50 [1]	IC50 [2]	IC50 [3]	IC50 [4]	Selectivity ratio over JAK2, JAK1 [1]	Selectivity ratio over JAK2, Tyk2 [4]	Selectivity ratio over JAK2, JAK3 ([3]; JAK3 over JAK2)	Structure (SMILES)
1 to 10 µM	> 10 µM	> 10 µM	> 10 µM	–	–	–	Cc1cnc(Nc2cnn(C)c2)nc1NC[C@H]1CCCN1 [Example 72, (R)-5-methyl-N^2-(1-methyl-1H-pyrazol-4-yl)-N^4-(pyrrolidin-2-ylmethyl)pyrimidine-2,4-diamine Hydrochloride]
0.1 to 1 µM	1 to 10 µM	1 to 10 µM	0.1 to 1 µM	JAK1 = 38	–	–	CN1C(=O)CCC1CNc1nc(Nc2cnn(C)c2)ncc1Cl (stereo not shown) [Example 78, 5-(((5-chloro-2-((1-methyl-1H-pyrazol-4-yl)amino)pyrimidin-4-yl)amino)methyl)-1-methylpyrrolidin-2-one]
< 0.1 µM	1 to 10 µM	1 to 10 µM	< 0.1 µM	–	Tyk2 = 145	–	Cn1cc(Nc2nccc(NC[C@H]3CCCN3C(=O)CCC#N)n2)cn1 [Example 93, (R)-4-(2-(((2-((1-methyl-1H-pyrazol-4-yl)amino)pyrimidin-4-yl)amino)methyl)pyrrolidin-1-yl)-4-oxobutanenitrile]
> 10 µM	> 10 µM	> 10 µM	> 10 µM	–	–	–	Cn1cc(Nc2ncc(Cl)c(NCC3CN(S(C)(=O)=O)C3)n2)cn1 [Example 18, 5-chloro-N^2-(1-methyl-1H-pyrazol-4-yl)-N^4-((1-(methylsulfonyl)azetidin-3-yl)methyl)pyrimidine-2,4-diamine]
< 0.1 µM	1 to 10 µM	1 to 10 µM	0.1 to 1 µM	JAK1 = 68	–	–	Cn1cc(Nc2ncc(Cl)c(NC[C@@H]3CCCN3CCCS(C)(=O)=O)n2)cn1 [Example 119, (S)-5-chloro-N^2-(1-methyl-1H-pyrazol-4-yl)-N^4-((1-(3-(methylsulfonyl)propyl)pyrrolidin-2-yl)methyl)pyrimidine-2,4-diamine]
< 0.1 µM	1 to 10 µM	< 0.1 µM	< 0.1 µM	–	Tyk2 = 140	–	Cc1cnc(Nc2cnn(CC(F)F)c2)nc1NC[C@H]1CCCN1CCC#N [Example 117, (R)-3-(2-(((2-((1-(2,2-difluoroethyl)-1H-pyrazol-4-yl)amino)-5-methylpyrimidin-4-yl)amino)methyl)pyrrolidin-1-yl)propanenitrile]
< 0.1 µM	1 to 10 µM	0.1 to 1 µM	< 0.1 µM	JAK1 = 33	–	–	Cc1cnc(Nc2cnn(C)c2)nc1NC[C@@H]1CCCN1CCS(C)(=O)=O [Example 105, (S)-5-methyl-N^2-(1-methyl-1H-pyrazol-4-yl)-N^4-((1-(2-(methylsulfonyl)ethyl)pyrrolidin-2-yl)methyl)pyrimidine-2,4-diamine]
< 0.1 µM	1 to 10 µM	< 0.1 µM	0.1 to 1 µM	–	–	JAK3 = 83	CC(C)S(=O)(=O)CCN1CCC[C@@H]1CNc1nc(Nc2cnn(C)c2)ncc1Cl [Example 139, (R)-5-chloro-N^4-((1-(2-(isopropylsulfonyl)ethyl)pyrrolidin-2-yl)methyl)-N^2-(1-methyl-1H-pyrazol-4-yl)pyrimidine-2,4-diamine]
< 0.1 µM	1 to 10 µM	0.1 to 1 µM	< 0.1 µM	–	Tyk2 = 170	–	Cn1cc(Nc2ncc(F)c(NC[C@H]3CCCN3C(=O)CC#N)n2)cn1 [Example 113, (R)-3-(2-(((5-fluoro-2-((1-methyl-1H-pyrazol-4-yl)amino)pyrimidin-4-yl)amino)methyl)pyrrolidin-1-yl)-3-oxopropanenitrile]
< 0.1 µM	1 to 10 µM	< 0.1 µM	< 0.1 µM	JAK1 = 70	–	–	Cc1cnc(Nc2cnn(CC(F)F)c2)nc1NC[C@H]1CCCN1CCS(C)(=O)=O [Example 116, (R)—N^2-(1-(2,2-difluoroethyl)-1H-pyrazol-4-yl)-5-methyl-N^4-((1-(2-(methylsulfonyl)ethyl)pyrrolidin-2-yl)methyl)pyrimidine-2,4-diamine]
< 0.1 µM	0.1 to 1 µM	0.1 to 1 µM	< 0.1 µM	–	Tyk2 = 12	–	Cn1cc(Nc2ncc(Cl)c(NC[C@H]3CCCN3C(=O)CO)n2)cn1 [Example 54, (R)-1-(2-((5-chloro-2-(1-methyl-1H-pyrazol-4-ylamino)pyrimidin-4-ylamino)methyl)pyrrolidin-1-yl)-2-hydroxyethanone]
< 0.1 µM	0.1 to 1 µM	< 0.1 µM	< 0.1 µM	JAK1 = 13	–	–	CS(=O)(=O)N1CCC[C@H]1CNc1nc(Nc2cnn(CCO)c2)ncc1Cl [Example 13, (S)-2-(4-((5-chloro-4-(((1-(methylsulfonyl)pyrrolidin-2-yl)methyl)amino)pyrimidin-2-yl)amino)-1H-pyrazol-1-yl)ethanol]
